Experiment: Plasma buprenorphine concentration after single administration (LC-MS/MS)
Settings: 0.1 mg/kg in terms of buprenorphine, cynomolgus monkey

CO[C@@]12CC[C@@]3(C[C@@H]1[C@](C)(O)C(C)(C)C)[C@H]1Cc4ccc(O)c5c4[C@@]3(CCN1CC1CC1)[C@H]2O5.Cl [Comparative Example 2, buprenorphine hydrochloride] gave a Plasma buprenorphine concentration (0 min, mean ± SD, intravenous) of 0 ng/mL, a Plasma buprenorphine concentration (10 min, Animal 1, intravenous) of 41.40 ng/mL and a Plasma buprenorphine concentration (10 min, Animal 2, intravenous) of 32.16 ng/mL. It also gave a Plasma buprenorphine concentration (10 min, Animal 3, intravenous) of 41.33 ng/mL, a Plasma buprenorphine concentration (10 min, mean ± SD, intravenous) of 38.30 ± 5.31 ng/mL and a Plasma buprenorphine concentration (30 min, Animal 1, intravenous) of 32.83 ng/mL. It also gave a Plasma buprenorphine concentration (30 min, Animal 2, intravenous) of 18.02 ng/mL, a Plasma buprenorphine concentration (30 min, Animal 3, intravenous) of 33.53 ng/mL and a Plasma buprenorphine concentration (30 min, mean ± SD, intravenous) of 28.12 ± 8.76 ng/mL. The Plasma buprenorphine concentration (60 min, Animal 1, intravenous) was 16.85 ng/mL, the Plasma buprenorphine concentration (60 min, Animal 2, intravenous) was 16.45 ng/mL and the Plasma buprenorphine concentration (60 min, Animal 3, intravenous) was 26.51 ng/mL. The Plasma buprenorphine concentration (60 min, mean ± SD, intravenous) was 19.94 ± 5.70 ng/mL, the Plasma buprenorphine concentration (120 min, Animal 1, intravenous) was 8.27 ng/mL and the Plasma buprenorphine concentration (120 min, Animal 2, intravenous) was 9.34 ng/mL. It also gave a Plasma buprenorphine concentration (120 min, Animal 3, intravenous) of 16.13 ng/mL, a Plasma buprenorphine concentration (120 min, mean ± SD, intravenous) of 11.25 ± 4.26 ng/mL and a Plasma buprenorphine concentration (240 min, Animal 1, intravenous) of 3.78 ng/mL. The Plasma buprenorphine concentration (240 min, Animal 2, intravenous) was 4.55 ng/mL, the Plasma buprenorphine concentration (240 min, Animal 3, intravenous) was 7.05 ng/mL and the Plasma buprenorphine concentration (240 min, mean ± SD, intravenous) was 5.13 ± 1.71 ng/mL. For the same compound, the Plasma buprenorphine concentration (480 min, Animal 1, intravenous) was 1.46 ng/mL, the Plasma buprenorphine concentration (480 min, Animal 2, intravenous) was 0.97 ng/mL and the Plasma buprenorphine concentration (480 min, Animal 3, intravenous) was 2.00 ng/mL. For the same compound, the Plasma buprenorphine concentration (480 min, mean ± SD, intravenous) was 1.48 ± 0.52 ng/mL.
